Measured values taken from patent publication US9422573B2, “Methods and means for generating microbial disease resistant plants” (VIB VZW, priority 2011, dated 2016).
Like-named read-outs stand apart in the source and are kept apart here.

Tests used:
A. brassicicola = format: cell-based, Alternaria brassicicola; details: for 50% growth inhibitory concentration (IC50): 48 h
Text: (§1) Next, we assessed the potential antifungal activity of At25 (ARACIN1) and At20 (ARACIN2) by an in vitro antifungal bioassay. Both propeptide and mature forms of At25 and At20 were produced by chemical synthesis (see Materials and Methods) and tested against A. brassicicola, B. cinerea B05-10 and B. cinerea Korea by means of a microtiter broth dilution assay (FIG. 9).
(§2) 11. Antifungal Activity Assay
(§3) Synthetic proAt25 peptide, mature At25 peptide, proat20 and mature At20 peptides were purchased from genscript (on the World Wide web at genscript.com). Stock solutions of 2×10^7 spores/ml of Botrytis cinerea B05-10, Botrytis cinerea Korea, Fusarium oxysporum and Alternaria brassicicola were diluted in ½ PDB (12 g/l Potato Dextrose Broth in water) to a final concentration of 2×10^4 spores/ml. After adding 196 μl aliquots of these spore dilutions to 4 μl of 2-fold dilution series of At25 in DMSO (starting from a 100 μg/ml stock solution) in microtiter plates, the plates were incubated on 23° C. for 48 h. DMSO was used as a negative control. Growth of the fungi was evaluated both microscopically and by measuring the OD600. Each fungus was tested in duplicate in the microtiter plates. Additionally, for Alternaria brassicicola this antifungal assay was repeated twice. For each assay, the average OD600 of each dilution and the DMSO control were compared using a t-test.

B. cinerea B05-10 = format: cell-based, Botrytis cinerea
Text: as §1, §2, §3

B. cinerea Korea = format: cell-based, Botrytis cinerea; details: for growth inhibition: Korea
Text: as §1, §2, §3

## NH2-RRSDTGPDISTPPSGSCGASIAE FNSSQILAKRAPPCRRPRLQNSEDVTHTTLP-COOH (H-RRSDTGPDISTPPSGSCGASIAEFNSSQILAKRAPPCRRPRLQNSEDVTHTTLP-OH; cysteine pairing not given here; listed as Arabidopsis thaliana) [proAt25]
A. brassicicola; A. brassicicola, data not shown
  inhibitory activity (in words): no statistically significant inhibitory activities
B. cinerea B05-10; B. cinerea B05-10, data not shown
  inhibitory activity (in words): no statistically significant inhibitory activities
B. cinerea Korea; B. cinerea Korea, data not shown
  inhibitory activity (in words): no statistically significant inhibitory activities

## H-GSCGAPISKYDFQVLAKRPPPCRRPRLENTEDVTHTTRP-OH (cysteine pairing not given here) [mature At20]
A. brassicicola
  50% growth inhibitory concentration (IC50): 1.55 ± 0.11 µg/mL
A. brassicicola; A. brassicicola, mature At20 versus proAt20
  reduction of IC50 value compared with the propeptide (proAt20): 86%
B. cinerea B05-10; B. cinerea B05-10
  antifungal activity in comparison with proAt20 (in words): remarkably increased
B. cinerea Korea; B. cinerea Korea
  antifungal activity in comparison with proAt20 (in words): remarkably increased

## H-GSCGASIAEFNSSQILAKRAPPCRRPRLQNSEDVTHTTLP-OH (cysteine pairing not given here) [mature At25]
A. brassicicola
  50% growth inhibitory concentration (IC50): 5.46 ± 0.57 µg/mL
A. brassicicola; A. brassicicola
  concentration from which growth inhibition / statistically significant antifungal effect starts: 1 µg/mL
B. cinerea B05-10; B05-10, 10 μg mL^−1
  growth inhibition: 95.7%
B. cinerea B05-10; B05-10, 48 h
  50% growth inhibitory concentration (IC50): 3.05 ± 0.25 µg/mL
B. cinerea Korea; B. cinerea Korea, 48 h, 23° C., OD600
  50% growth inhibitory concentration (IC50): 2.03 ± 0.44 µg
B. cinerea Korea; 10 μg mL^−1
  growth inhibition: 94%

## NH2-SIPDDDMGPAIYTPPSGSCGA PISKYDFQVLAKRPPPCRRPRLENTEDVTHTTRP-COOH [proAt20]
A. brassicicola; 5 μg mL^−1
  growth inhibition: 36.7%
A. brassicicola
  50% growth inhibitory concentration (IC50): 11.32 ± 1.28 µg/mL
A. brassicicola; A. brassicicola
  concentration from which growth inhibition / statistically significant antifungal effect starts: 5 µg/mL
B. cinerea B05-10; B05-10, 20 μg mL^−1
  growth inhibition: 62%
B. cinerea B05-10; B. cinerea B05-10
  concentration from which statistically significant antifungal effect starts: 20 µg/mL
B. cinerea Korea; B. cinerea Korea
  concentration from which statistically significant antifungal effect starts: 20 µg/mL
B. cinerea Korea; 20 μg mL^−1
  growth inhibition: 64.8%
